Source: PMC10673995, “Discovery of a novel cardiac-specific myosin modulator using artificial intelligence-based virtual screening” (Nature Communications, 2023)
Values joined by “and” are separate entries in the source; they are usually repeats but may differ in a detail not shown here. Identical values can stand only once. Like-named read-outs stand apart in the source and are kept apart here.

Tests used:
[1] = molecular target: T1, bovine β-cardiac myosin S1 (Bos taurus, UniProt Q9BE39); test: Cardiac acto-myosin S1 ATPase (NADH-coupled); assay type: biochemical; design: myosin S1 ATPase activity vs F-actin concentration: unit not given here; conditions: for myosin S1 ATPase activity vs F-actin concentration: 100 μmol/L F10, Experiment # 1-9
T1 construct: IC50 for the ATPase activity of the isolated myosin motor domain; from tissue; host or cells: bovine ventricle
Description: Bovine cardiac myosin S1 was prepared from bovine ventricle as previously described. Rabbit skeletal F-actin was purchased from Cytoskeleton Inc. and prepared for experiments according to manufacturer’s instructions.
20 μL of enzyme mix in buffer A (composition in mmol L^−1: 10 MOPS, 0.1 EGTA, 1 DTT, pH 7) containing 500 nmol L^−1 bovine cardiac myosin S1, 40 U mL^−1 lactate dehydrogenase and 400 U mL^−1 pyruvate kinase were dispensed into a black 96-well half area plate (Greiner). […] Each assay plate contained five wells with DMSO only (negative control) and five wells with 10 μmol L^−1 Blebbistatin (positive control). Plates were incubated on a plate shaker at 30 °C for 10 min at 2000 rpm. […] 96-channel pipette. Plates were briefly mixed by shaking at 5000 rpm on a plate shaker and spun down at 3000 g for 10 s. NADH fluorescence intensity was measured for each well using a ClarioStar Plate Reader for 10 min every 30 sec at 30 °C with the following settings: excitation at 380 nm with a 10 nm bandwidth and emission at 470 nm with a 24 nm bandwidth. Data were recorded with BMG Labtech Reader Control Software v6.20.

cardiac myofibrils = test: Myofibrillar ATPase, cardiac (ventricle) myofibrils; assay type: biochemical, marmoset (Callithrix jacchus)
Source text: (§1) Next we tested the myosin isoform specificity of F10 by measuring its effect on the ATPase activity of myofibrils isolated from ventricle, and fast (Tiberialis Anterior) and slow skeletal muscles (Soleus) isolated from marmoset (Callithrix jacchus).
(§2) Demembranated myofibrils were freshly prepared from bovine ventricle on the day of the experiments as previously described[25],[63]. Marmoset ventricular and skeletal muscle tissue was kindly provided by the Biological Service Unit of King’s College London. Steady-state myofibrillar ATPase activity was measured using an identical protocol as described above but in myofibril assay buffer (composition in mmol L^−1: 20 MOPS pH 7, 50 KCl, 0.1 CaCl2, 1 DTT) with a final bovine CMF concentration of 1 mg mL^−1.

[2] = tested on: slow skeletal muscle (Soleus) myofibrils; test: Myofibrillar ATPase, slow skeletal myofibrils; assay type: biochemical, marmoset (Callithrix jacchus)
Source text: as §1, §2

[3] = tested on: orientation of the RLC-region of myosin in demembranated trabeculae; test: Polarized fluorescence of BSR-cRLC-E in demembranated trabeculae (order parameter <P2>); design: species or system rat (Rattus norvegicus)
Source text: In a subset of trabeculae, we replaced the endogenous myosin regulatory light chain (RLC) with a recombinant cardiac RLC crosslinked to a bifunctional sulforhodamine (BSR) along its E-helix (BSR-cRLC-E)[39],[40]. This allowed us to determine the orientation of the RLC-region of myosin in demembranated trabeculae using polarized fluorescence (Fig. 4b; Supplementary Table 2). […] In contrast, F10 increased <P2> for the E-helix probe, under both relaxing and activating conditions, and abolished the orientation change in the myosin heads associated with Ca^2+-activation of the myofilaments. […] As a step towards elucidating the molecular mechanism behind F10’s stabilizing effect on the myosin head OFF conformation, we measured the affinity of isolated bovine β-cardiac myosin S1 in the presence of various nucleotides and F10 for the myosin S2 tail domain using Microscale Thermophoresis (Fig. S4).
BSR-cRLCs were exchanged into demembranated trabeculae by extraction in CDTA-rigor solution (composition in mmol L^−1: 5 CDTA, 50 KCl, 40 Tris-HCl pH 8.4, 0.1% (v/v) Triton X-100) for 30 min followed by reconstitution with 40 μmol L^−1 BSR-cRLC in relaxing solution (composition in mmol L^−1: 25 Imidazole, 15 Na2Creatine phosphate (Na2CrP), 78.4 KPropionate (KPr), 5.65 Na2ATP, 6.8 MgCl2, 10 K2EGTA, 1 DTT, pH 7.1) for 1 h, replacing ~50% of the endogenous cRLC[40],[64].
Composition of experimental solutions and activation protocols were identical to those described previously for fluorescence polarization experiments. Fluorescence emission from BSR-cRLCs in trabeculae were collected by a 0.25 N.A. objective using an excitation light beam in line with the emission path. […] The fluorescence emission was separated into parallel and perpendicular components by polarizing beam splitters, and its intensity measured by two photomultipliers, allowing determination of the order parameter <P2> that describes the dipole orientations in the trabeculae. […]

cyclic GMP-AMP synthase = tested on: cyclic GMP-AMP synthase; design: method as in PubChem; conditions: ref PubChem; cited from earlier work
[4] = tested on: phospholipid biosynthesis in mammalian cells; design: method as in PubChem; conditions: ref PubChem; cited from earlier work

T1 sequence (Q9BE39 85-778 limits assumed): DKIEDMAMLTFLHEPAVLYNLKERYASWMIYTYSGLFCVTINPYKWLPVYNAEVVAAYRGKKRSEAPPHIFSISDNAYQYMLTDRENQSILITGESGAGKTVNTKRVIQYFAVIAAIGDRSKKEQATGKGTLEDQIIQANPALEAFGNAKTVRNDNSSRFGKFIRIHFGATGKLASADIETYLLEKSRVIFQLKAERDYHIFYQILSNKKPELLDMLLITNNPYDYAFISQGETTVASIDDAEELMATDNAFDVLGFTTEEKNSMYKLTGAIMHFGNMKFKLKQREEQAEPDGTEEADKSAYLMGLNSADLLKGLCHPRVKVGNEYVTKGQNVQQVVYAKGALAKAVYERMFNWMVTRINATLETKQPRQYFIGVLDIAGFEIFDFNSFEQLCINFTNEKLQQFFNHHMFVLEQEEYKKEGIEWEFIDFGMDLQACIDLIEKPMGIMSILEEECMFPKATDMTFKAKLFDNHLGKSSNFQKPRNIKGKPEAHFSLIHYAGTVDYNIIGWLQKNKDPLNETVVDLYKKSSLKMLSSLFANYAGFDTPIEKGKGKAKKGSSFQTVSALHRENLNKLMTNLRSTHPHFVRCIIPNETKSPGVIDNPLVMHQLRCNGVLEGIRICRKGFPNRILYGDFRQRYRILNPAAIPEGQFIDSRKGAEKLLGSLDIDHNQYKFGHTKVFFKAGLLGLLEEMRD
T1 sequence (P85100 whole entry partner, the tested form may be a part): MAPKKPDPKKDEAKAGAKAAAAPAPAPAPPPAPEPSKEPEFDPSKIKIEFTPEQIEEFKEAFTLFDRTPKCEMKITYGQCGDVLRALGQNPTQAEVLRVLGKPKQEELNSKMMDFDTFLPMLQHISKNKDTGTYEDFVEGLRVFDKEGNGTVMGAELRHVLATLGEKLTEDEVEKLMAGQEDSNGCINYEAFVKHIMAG

CCc1cc2c(=O)n(NC(=S)NC(C)C)cnc2s1 [F10]
EC50 [1]: ~20 µM
LE (ligand efficiency) [1]: 0.34
reduction of F-actin stimulated ATPase activity ([1]; 10 μmol L^−1, mean ± s.e.m., n = 4): 44 ± 2%
myosin S1 ATPase activity vs F-actin concentration ([1]; F-Actin 0 μmol L^−1): 0
myosin S1 ATPase activity vs F-actin concentration ([1]; F-Actin 6.25 μmol L^−1): 0.1565 and 0.1528 and 0.08965 and 0.1313 and 0.1366 and 0.1027 and 0.1063
myosin S1 ATPase activity vs F-actin concentration ([1]; F-Actin 80 μmol L^−1): 0.417 and 0.4489 and 0.3031
remaining activity at 12.207 µM ([1]; F10 0.012207 mmol L-1 (so in the source), Experiment # 1-6, read-out: acto-myosin S1 ATPase activity, dose-response): 92.9%
remaining activity at 24.414 µM ([1]; F10 0.024414 mmol L-1 (so in the source), Experiment # 1-6, read-out: acto-myosin S1 ATPase activity, dose-response): 101%
remaining activity at 48.828 µM ([1]; F10 0.048828 mmol L-1 (so in the source), Experiment # 1-6, read-out: acto-myosin S1 ATPase activity, dose-response): 99.4%
remaining activity at 97.656 µM ([1]; F10 0.097656 mmol L-1 (so in the source), Experiment # 1-6, read-out: acto-myosin S1 ATPase activity, dose-response): 92.7%
remaining activity at […] ([1]; F10 0.195313 mmol L-1 (so in the source), Experiment # 1-6, read-out: acto-myosin S1 ATPase activity, dose-response): 94.4%
remaining activity at 390.625 µM ([1]; F10 0.390625 mmol L-1 (so in the source), Experiment # 1-6, read-out: acto-myosin S1 ATPase activity, dose-response): 98.9%
remaining activity at 781.25 µM ([1]; F10 0.78125 mmol L-1 (so in the source), Experiment # 1-6, read-out: acto-myosin S1 ATPase activity, dose-response): 100%
remaining activity at […] ([1]; F10 3.125 mmol L-1 (so in the source), Experiment # 1-6, read-out: acto-myosin S1 ATPase activity, dose-response): 86.8%
remaining activity at […] ([1]; F10 6.25 mmol L-1 (so in the source), Experiment # 1-6, read-out: acto-myosin S1 ATPase activity, dose-response): 79.3%
remaining activity at […] ([1]; F10 12.5 mmol L-1 (so in the source), Experiment # 1-6, read-out: acto-myosin S1 ATPase activity, dose-response): 69.6%
IC50 ([1]; IC50 acto-myosin S1 ATPase activity, means ± s.e.m., n = 6): 21.3 ± 3.4 µM
maximal decrease of actomyosin ATPase activity ([1]; dose-response, means ± s.e.m., n = 6): 89 ± 5%
maximal rate of ATP hydrolysis (kcat) ([1]; in the presence of 100 μmol/L F10, control about 1.3): about 0.5 s^−1 head^−1
apparent dissociation equilibrium constant for F-actin binding (Kapp) ([1]; in the presence of F10 (same in its absence)): about 20 μmol L^−1
IC50 ([1]; means ± s.e.m., n = 6, read-out: IC50 acto-myosin S1 ATPase activity): 21 ± 3 µM
acto-myosin S1 ATPase activity, normalized to DMSO control ([1]; single dose 10 μmol L^−1 compound, 10 μmol L^−1 F-actin, Repeat #1-#4, listed as 70): 59 and 55 and 52 and 58
reduction of ATPase activity of fully Ca^2+-activated cardiac myofibrils (cardiac myofibrils; 20 μmol L^−1 F10): about 25%
Myofibrilar ATPase [%], change vs control (cardiac myofibrils; Cardiac, 20 μmol L^-1 F10): -25%
Myofibrilar ATPase, individual experiments (cardiac myofibrils; Cardiac, 20 μmol L^-1 F10): 83.5308% and 67.1834% and 78.6678% and 70.8623% and 61.5039% and 74.009% and 72.9056% and 72.7421% and 68.3286% and 79.5291% and 87.482% and 81.308% and 87.6564% and 79.3198% and 89.7828% and 83.8896% and 74.0503% and 38.3012% and 88.0917% and 60.4189%
decrease in ATPase activity of soleus myofibrils ([2]; 20 μmol L^−1 F10): about 10%
Myofibrilar ATPase [%], change vs control ([2]; Soleus (slow), 20 μmol L^-1 F10): -10%
Myofibrilar ATPase, individual experiments ([2]; Soleus, 20 μmol L^-1 F10): 91.7277% and 110.835% and 94.2329% and 93.0845% and 93.8276% and 88.6937% and 89.9096% and 92.8819% and 84.7083% and 101.326% and 81.2354% and 85.1848% and 83.8911% and 92.3346% and 84.6401% and 69.9319% and 80.963% and 77.0136% and 90.9224% and 106.296% and 102.343% and 99.9268% and 89.6779% and 109.737%
order parameter <P2>max ([3]; full Ca^2+ activation pCa 4.5, 20 μmol L^−1 F10, control 0.078 ± 0.008): 0.160 and 0.235 and 0.225
<P2>max ([3]; individual replicates): 0.160 and 0.235 and 0.225
<P2>min ([3]; individual replicates): 0.178 and 0.208 and 0.194
biological activity in primary screen (cyclic GMP-AMP synthase): without, however, any biological activity
biological activity in primary screen [4]: without, however, any biological activity
